Usually IC50 stands for the concentration that gives 50% inhibition. One may read the EC50 as the concentration needed to bring the measured effect to its halfway point.

The target of one assay is T1, G-protein coupled receptor 35 (Homo sapiens, UniProt Q9HC97). The assay is described as follows: Antagonist activity at HA tagged GPR35a (unknown origin) expressed in human U2OS cells co-expressing GFP-fused beta arrestin-2 assessed as inhibition of zaprinast induced effect. It is filed as cell-based.
T1 sequence (Q9HC97 whole entry, the tested form may be a part): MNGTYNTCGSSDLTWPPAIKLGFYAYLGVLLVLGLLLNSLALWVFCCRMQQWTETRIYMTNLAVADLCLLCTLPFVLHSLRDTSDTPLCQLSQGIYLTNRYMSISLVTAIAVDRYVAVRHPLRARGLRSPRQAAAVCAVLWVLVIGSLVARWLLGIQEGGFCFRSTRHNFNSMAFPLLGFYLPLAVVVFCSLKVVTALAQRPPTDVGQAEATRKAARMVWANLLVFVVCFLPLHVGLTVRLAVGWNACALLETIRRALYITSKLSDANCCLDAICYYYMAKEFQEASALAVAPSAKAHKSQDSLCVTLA
For `O=C(Nc1ccc2nc(SCc3ccc(Cl)cc3)sc2c1)c1ccccc1C(=O)N1CCOCC1`, the half-maximal inhibitory concentration (IC50) turned out to be 4.56 µM.

`O=C(Nc1ccc2nc(SCc3ccccc3)sc2c1)c1ccccc1C(=O)N1CCOCC1`: the IC50 was 7.23 µM.

As to `O=C(Nc1ccc2nc([S+]([O-])Cc3ccc(Cl)cc3)sc2c1)c1ccccc1C(=O)N1CCOCC1` (stereo not drawn), the 50% inhibitory concentration (IC50) amounted to 13 µM.

For `O=C(Nc1ccc2nc(SCc3ccc(Cl)cc3)sc2c1)c1ccccc1C(=O)N1CCCCC1`, the half-inhibitory concentration (IC50) was > 30 µM.

Turning to `O=C(Nc1ccc2nc([S@+]([O-])Cc3ccc(Cl)cc3)sc2c1)c1ccccc1C(=O)N1CCOCC1`, the IC50 is > 30 µM.

Consider `CC(Sc1nc2ccc(NC(=O)c3ccccc3C(=O)N3CCOCC3)cc2s1)c1ccc(Cl)cc1` (stereo not drawn), for which the IC50 was 17 µM.

For the molecule `O=C(Nc1ccc2nc(S(=O)(=O)Cc3ccc(Cl)cc3)sc2c1)c1ccccc1C(=O)N1CCOCC1`, the IC50 stood at 5.24 µM.

With `O=C(Nc1ccc2nc(SCc3ccncc3)sc2c1)c1ccccc1C(=O)N1CCOCC1`, the half-maximal inhibitory concentration (IC50) is > 30 µM.

As to `O=C(Nc1ccc2nc(SCc3ccc(Cl)cc3)sc2c1)c1ccccc1C(=O)N1CCCC1`, the IC50 was > 30 µM.

As to `O=C(Nc1ccc2nc([S@@+]([O-])Cc3ccc(Cl)cc3)sc2c1)c1ccccc1C(=O)N1CCOCC1`, the IC50 was > 30 µM.

For the molecule `O=C(Nc1ccc2nc(SCc3ccc(Cl)cc3)[nH]c2c1)c1ccccc1C(=O)N1CCOCC1`, the IC50 is > 30 µM.

Another assay concerns the target T1, G-protein coupled receptor 35. The assay is described as follows: Antagonist activity at GPR35 (unknown origin).
The molecule `O=C(O)c1cc(=O)c2ccccc2[nH]1` [TRANSTORINE] gave an IC50 of 39 µM.

The next assay has the same target. The assay is described as follows: Antagonist activity at human N-terminal HA-tagged GPR35a expressed in human U2OS cells co-expressing GFP-fused beta arrestin-2 assessed as inhibition of agonist induced redistribution of GFP-fused beta arrestin-2 preincubated for 15 mins followed by agonist addition by fluorescence assay. It is filed as cell-based.
`O=C(Nc1ccc2nc(SCc3ccc(Cl)cc3)sc2c1)c1ccccc1C(=O)N1CCOCC1`: the EC50 amounted to 550 nM.

These data come from ChEMBL document CHEMBL4000182, “Structure-activity relationships of benzothiazole GPR35 antagonists” (Bioorg Med Chem Lett, 2017).
